Experimental data: patent US20050049229A1, “Therapeutic applications of 2-hydroxyacetanilide” (priority 2003, published 2005)
Like-named read-outs stand apart in the source and are kept apart here. Marks after values point to notes of the source that are not given here.

What was measured:
[1] = system: platelet aggregation induced by collagen, arachidonic acid (AA) and adenosine diphosphate (ADP); conditions: Dupin et al.; cited from earlier work
[2] = system: carrageenan-induced rat-paw oedema; test: carrageenan-induced rat paw oedema (plethysmographic method); type: in vivo; conditions: for Mean paw volume ± SEM after 5 hr: 30 min before carrageenan; for Anti-inflammatory Activity Mean ± SEM: A−B/A×100 vs control, in %
Procedure: The plethysmographic method (Winter et al., Proc. Soc. Exp. Biol. Med. III, 1962, pp. 544-547) was then used for recording the volume changes in the rat paw. […] Another two groups received paracetamol at a dose of 300 or 500 mg kg^−1, and a further two groups received aspirin at a dose of 150 or 300 mg kg^−1, while the control group received saline or distilled water. […] The difference in paw volumes before and after the carrageenan injections indicated the volume of inflammation. Anti-inflammatory activities were calculated as A−B/A×100, where A and B denote mean paw volume of control and drug-treated animals respectively.

PAF-induced mortality = test: prevention of PAF-induced mortality in rabbits; type: in vivo, rabbit
Procedure: Male rabbits (New Zealand White, 3-3.5 kg) were used to test the ability of 2-hydroxyacetanilide, paracetamol and aspirin to prevent the lethality of intravenous PAF.
PAF was prepared before each injection by dissolution in saline to give a final concentration of 22 μg ml^−1. The resulting solution was injected into the marginal ear vein of the rabbits over a period of approximately 1 minute. In preliminary experiments it was established that an intravenous dose of 11 μg kg^−1 PAF was required to induce consistently fatal pulmonary thrombosis in the animals (n=6). This dose of PAF was used in subsequent experiments with 2-hydroxyacetanilide and paracetamol.
Rabbits were pretreated by intraperitoneal injection of either 2-hydroxyacetanilide (100 or 300 mg kg^−1), paracetamol (300 or 500 mg kg^−1) or aspirin (50 mg kg^−1) 2 hours before the challenging dose of PAF. Each animal was used for only one experiment.

[3] = system: platelet aggregation induced by AA, PAF or collagen; test: in vitro platelet aggregation in human platelet rich plasma; type: cell-based; conditions: human PRP
Procedure: Blood was drawn by vein puncture from healthy human volunteers reported to be free of medications for at least one week. The blood samples were mixed with 3.8% w/v sodium citrate solution (9:1) and centrifuged at 260 g for 15 minutes at 20° C. to obtain platelet rich plasma (PRP). The platelet count was determined by phase contrast microscopy and all aggregation studies were carried out at 37° C. with PRP having platelet counts between 2.5 and 3.0×10^8/ml of plasma. All experiments were performed within 2 hours of PRP preparation.
Platelet aggregation was monitored using a Dual-channel Lumi-aggregometer (Model 400 Chronolog Corporation, Chicago, USA) using 0.45 ml aliquots of PRP. The final volume was made up to 0.5 ml with the test compound dissolved either in normal saline or an appropriate solvent known to be devoid of any effect on aggregation. Aggregation was induced by arachidonic acid (AA), platelet activating factor (PAF) or collagen.
Anti-platelet aggregation effects were studied by pretreatment of PRP with 2-hydroxyacetanilide or paracetamol for 1 minute followed by the addition of the maximum dose of agonist (i.e. AA, PAF or collagen). The resulting aggregation was monitored for 5 minutes following agonist addition by the change in light transmission as a function of time.
The results were expressed as percentage inhibition after the addition of aggregation agents compared with controls. Once the anti-platelet aggregation activity of the inhibitors against these agonists was established, dose-response curves were constructed to calculate the IC50 values of the inhibitors.

[4] = system: platelet aggregation induced by AA, PAF or collagen; test: in vivo platelet aggregation (PRP from orally dosed rabbits); set-up: species or system rabbit; conditions: Oryctolagus cuniculus, 500 mg/kg oral, blood 2 hours after
Procedure: Both 2-hydroxyacetanilide and paracetamol were tested for in vivo platelet aggregation activity at a dose of 500 mg kg^−1. The compounds were first separately dissolved in 0.5% w/v gum tragacanth and then administered orally to albino rabbits of either sex. Control groups received only the vehicle.
Blood was drawn from the marginal ear of the rabbits 2 hours after drug administration. The blood was then mixed with 3.8% w/v sodium citrate solution (9:1) and centrifuged at 260 g for 15 minutes at 20° C. to prepare platelet rich plasma (PRP). The platelet count was determined by phase contrast microscopy and all aggregation studies were carried out at 37° C. with PRP having platelet counts between 2.5 and […] /ml of plasma. The experiments were performed within 2 hours of PRP preparation.
Platelet aggregation was monitored using a Dual-Channel Lumi-aggregometer (Model 400 Chronolog Corporation, Chicago, USA) using 0.45 ml aliquots of PRP. Aggregation was induced with platelet activating factor (PAF, 0.8 μM), collagen (20 μg mL^−1) or arachidonic acid (AA, 1.7 mM).

[5] = system: acetic acid induced writhing; test: acetic acid induced writhing test in mice; type: in vivo, mouse; conditions: for No. of writhings: 30 min before 1% acetic acid IP, counted 10 minutes
Procedure: Analgesia was assessed by the method of Koster et al. (Federation Proceedings, 1959, 18, pp. 412-416), otherwise known as the acetic acid induced writhing test. When acetic acid is injected intraperitoneally it causes abdominal contractions or writhings, a syndrome characterized by a wave of contraction of the abdominal musculature followed by extension of hind limbs. By counting the number of writhes a measure of the effective analgesia provided can be obtained.
Male Wister mice (20-25 g) were divided into six groups, with five mice per group, for use in the writhing assay. The compounds 2-hydroxyacetanilide or paracetamol were administered orally 30 minutes prior to an intraperitoneal injection of 1% acetic acid. Immediately after administering the acetic acid, the number of writhings were counted and recorded for the subsequent 10 minutes. Analgesic potency was taken as difference between a test group mean and its control.

[6] = overdose, about twenty 500 mg tablets; cited from earlier work

For `CC(=O)Nc1cccc(O)c1` [3-hydroxyacetanilide], the “in vitro inhibition of platelet aggregation” value [1] is listed as “comparable in vitro inhibition”.
With `CC(=O)Oc1ccccc1C(=O)O` [Aspirin] the “Mean paw volume ± SEM after 5 hr” value ([2]; dose 150 mg/kg) was 0.58 ± 0.08 mL, the “Anti-inflammatory Activity Mean ± SEM” value ([2]; dose 150 mg/kg) was 28 ± 9 and the “Mean paw volume ± SEM after 5 hr” value ([2]; dose 500 mg/kg) was 0.23 ± 0.03 mL. The “Anti-inflammatory Activity Mean ± SEM” value ([2]; dose 500 mg/kg) was 71 ± 3 and the Survival (PAF-induced mortality; 50 mg/kg IP 2 hours before PAF 11 μg/kg IV) was 7/10*.
For `CC(=O)Nc1ccc(O)cc1` [Paracetamol, 4-hydroxyacetanilide], the “Mean paw volume ± SEM after 5 hr” value ([2]; dose 300 mg/kg) was 0.75 ± 0.06 mL, the “Anti-inflammatory Activity Mean ± SEM” value ([2]; dose 300 mg/kg) was 6 ± 2 and the “Mean paw volume ± SEM after 5 hr” value ([2]; dose 500 mg/kg) was 0.72 ± 0.07 mL. For the same compound, the “Anti-inflammatory Activity Mean ± SEM” value ([2]; dose 500 mg/kg) was 10 ± 3, the IC50 ([3]; aggregation agent AA, read-out: IC50 ± SEM, platelet aggregation induced by AA) was 136 ± 1 µM and the IC50 ([3]; aggregation agent PAF, read-out: IC50 ± SEM, platelet aggregation induced by PAF) was 167 ± 8 µM. The IC50 ([3]; aggregation agent collagen, read-out: IC50 ± SEM, platelet aggregation induced by Collagen) was 263 ± 1 µM, the inhibition at 500 mg/kg ([4]; AA 1.7 mM, read-out: % inhibition of in vivo platelet aggregation induced by AA) was 5 ± 3% and the inhibition at 500 mg/kg ([4]; PAF 0.8 μM, read-out: % inhibition of in vivo platelet aggregation induced by PAF) was 8 ± 2%. The Survival (PAF-induced mortality; 300 mg/kg IP 2 hours before PAF 11 μg/kg IV) was 0/10, the Survival (PAF-induced mortality; 500 mg/kg IP 2 hours before PAF 11 μg/kg IV) was 2/10 and the No. of writhings ([5]; 300 mg/kg oral) was 20. It also gave a No. of writhings ([5]; 500 mg/kg oral) of 3.2, an inhibition at 300 mg/kg ([5]; Mus musculus, 300 mg/kg oral) of 33% and an inhibition at 500 mg/kg ([5]; Mus musculus, 500 mg/kg oral) of 89%. For the same compound, the “dose that may cause hepatocellular necrosis” value [6] was ≥ 10 g.
